{"source": "PubChem BioAssay (NCI)", "note": "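In this assay, cells in 96-well plates receive the compound at five concentrations for 48 hours. Endpoints are linearly interpolated between the surrounding concentrations. TGI denotes the concentration required for complete inhibition of growth.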", "data": [{"test_system": "RPMI-8226 leukemia", "assay": "growth of human tumour cells (NCI), 48 h", "units": {"TGI": "µM"}, "values": [{"smiles": "C[C@]12CC[C@H](OC3CCCCO3)CC1=CC[C@@H]1C2CC[C@]2(C)/C(=N/OCCC#N)CCC12", "note": "(stereo partly drawn)", "TGI": "> 100"}, {"smiles": "NC(N)=NNC(=O)CCn1[nH]c(=O)c(Cl)c(Cl)c1=O", "TGI": "> 100"}, {"smiles": "CC(C)OC(=O)c1cc(NC(=O)C(C)(C)C)c(F)cc1Cl", "TGI": "> 100"}, {"smiles": "COCOCCCCCO[Si](C)(C)C(C)(C)C", "TGI": 51.9}, {"smiles": "COC(=O)C1=C(C(=O)OC)C2(C3C(SC)=CC(C)(C)CC3S1)N(Cc1ccccc1)CCN2Cc1ccccc1", "note": "(stereo not drawn)", "TGI": "> 100"}]}, {"test_system": "DLD-1 colon", "assay": "growth of human tumour cells (NCI), 48 h", "units": {"TGI": "µM"}, "values": [{"smiles": "C[C@]12CC[C@H](OC3CCCCO3)CC1=CC[C@@H]1C2CC[C@]2(C)/C(=N/OCCC#N)CCC12", "note": "(stereo partly drawn)", "TGI": "> 100"}, {"smiles": "NC(N)=NNC(=O)CCn1[nH]c(=O)c(Cl)c(Cl)c1=O", "TGI": "> 100"}, {"smiles": "COCOCCCCCO[Si](C)(C)C(C)(C)C", "TGI": "> 100"}, {"smiles": "COC(=O)C1=C(C(=O)OC)C2(C3C(SC)=CC(C)(C)CC3S1)N(Cc1ccccc1)CCN2Cc1ccccc1", "note": "(stereo not drawn)", "TGI": "> 100"}]}, {"test_system": "HL-60(TB) leukemia", "assay": "growth of human tumour cells (NCI), 48 h", "units": {"TGI": "µM"}, "values": [{"smiles": "NC(N)=NNC(=O)CCn1[nH]c(=O)c(Cl)c(Cl)c1=O", "TGI": "> 100"}, {"smiles": "CC(C)OC(=O)c1cc(NC(=O)C(C)(C)C)c(F)cc1Cl", "TGI": "> 100"}, {"smiles": "COCOCCCCCO[Si](C)(C)C(C)(C)C", "TGI": 30.9}]}, {"test_system": "SK-MEL-28 melanoma", "assay": "growth of human tumour cells (NCI), 48 h", "units": {"TGI": "µM"}, "values": [{"smiles": "C[C@]12CC[C@H](OC3CCCCO3)CC1=CC[C@@H]1C2CC[C@]2(C)/C(=N/OCCC#N)CCC12", "note": "(stereo partly drawn)", "TGI": "> 100"}, {"smiles": "NC(N)=NNC(=O)CCn1[nH]c(=O)c(Cl)c(Cl)c1=O", "TGI": "> 100"}, {"smiles": "CC(C)OC(=O)c1cc(NC(=O)C(C)(C)C)c(F)cc1Cl", "TGI": "> 100"}, {"smiles": "COCOCCCCCO[Si](C)(C)C(C)(C)C", "TGI": "> 100"}, {"smiles": "COC(=O)C1=C(C(=O)OC)C2(C3C(SC)=CC(C)(C)CC3S1)N(Cc1ccccc1)CCN2Cc1ccccc1", "note": "(stereo not drawn)", "TGI": "> 100"}]}, {"test_system": "SF-539 CNS", "assay": "growth of human tumour cells (NCI), 48 h", "units": {"TGI": "µM"}, "values": [{"smiles": "C[C@]12CC[C@H](OC3CCCCO3)CC1=CC[C@@H]1C2CC[C@]2(C)/C(=N/OCCC#N)CCC12", "note": "(stereo partly drawn)", "TGI": "> 100"}, {"smiles": "NC(N)=NNC(=O)CCn1[nH]c(=O)c(Cl)c(Cl)c1=O", "TGI": "> 100"}, {"smiles": "CC(C)OC(=O)c1cc(NC(=O)C(C)(C)C)c(F)cc1Cl", "TGI": "> 100"}, {"smiles": "COCOCCCCCO[Si](C)(C)C(C)(C)C", "TGI": 40.8}, {"smiles": "COC(=O)C1=C(C(=O)OC)C2(C3C(SC)=CC(C)(C)CC3S1)N(Cc1ccccc1)CCN2Cc1ccccc1", "note": "(stereo not drawn)", "TGI": "> 100"}]}, {"test_system": "SN12C renal", "assay": "growth of human tumour cells (NCI), 48 h", "units": {"TGI": "µM"}, "values": [{"smiles": "C[C@]12CC[C@H](OC3CCCCO3)CC1=CC[C@@H]1C2CC[C@]2(C)/C(=N/OCCC#N)CCC12", "note": "(stereo partly drawn)", "TGI": "> 100"}, {"smiles": "NC(N)=NNC(=O)CCn1[nH]c(=O)c(Cl)c(Cl)c1=O", "TGI": "> 100"}, {"smiles": "CC(C)OC(=O)c1cc(NC(=O)C(C)(C)C)c(F)cc1Cl", "TGI": "> 100"}, {"smiles": "COCOCCCCCO[Si](C)(C)C(C)(C)C", "TGI": 32}, {"smiles": "COC(=O)C1=C(C(=O)OC)C2(C3C(SC)=CC(C)(C)CC3S1)N(Cc1ccccc1)CCN2Cc1ccccc1", "note": "(stereo not drawn)", "TGI": "> 100"}]}, {"test_system": "M19-MEL melanoma", "assay": "growth of human tumour cells (NCI), 48 h", "units": {"TGI": "µM"}, "values": [{"smiles": "C[C@]12CC[C@H](OC3CCCCO3)CC1=CC[C@@H]1C2CC[C@]2(C)/C(=N/OCCC#N)CCC12", "note": "(stereo partly drawn)", "TGI": "> 100"}, {"smiles": "NC(N)=NNC(=O)CCn1[nH]c(=O)c(Cl)c(Cl)c1=O", "TGI": "> 100"}, {"smiles": "CC(C)OC(=O)c1cc(NC(=O)C(C)(C)C)c(F)cc1Cl", "TGI": "> 100"}, {"smiles": "COCOCCCCCO[Si](C)(C)C(C)(C)C", "TGI": 70}, {"smiles": "COC(=O)C1=C(C(=O)OC)C2(C3C(SC)=CC(C)(C)CC3S1)N(Cc1ccccc1)CCN2Cc1ccccc1", "note": "(stereo not drawn)", "TGI": "> 100"}]}, {"test_system": "MOLT-4 leukemia", "assay": "growth of human tumour cells (NCI), 48 h", "units": {"TGI": "µM"}, "values": [{"smiles": "NC(N)=NNC(=O)CCn1[nH]c(=O)c(Cl)c(Cl)c1=O", "TGI": "> 100"}, {"smiles": "CC(C)OC(=O)c1cc(NC(=O)C(C)(C)C)c(F)cc1Cl", "TGI": "> 100"}, {"smiles": "COCOCCCCCO[Si](C)(C)C(C)(C)C", "TGI": 36.9}, {"smiles": "COC(=O)C1=C(C(=O)OC)C2(C3C(SC)=CC(C)(C)CC3S1)N(Cc1ccccc1)CCN2Cc1ccccc1", "note": "(stereo not drawn)", "TGI": "> 100"}]}, {"test_system": "KM12 colon", "assay": "growth of human tumour cells (NCI), 48 h", "units": {"TGI": "µM"}, "values": [{"smiles": "C[C@]12CC[C@H](OC3CCCCO3)CC1=CC[C@@H]1C2CC[C@]2(C)/C(=N/OCCC#N)CCC12", "note": "(stereo partly drawn)", "TGI": "> 100"}, {"smiles": "NC(N)=NNC(=O)CCn1[nH]c(=O)c(Cl)c(Cl)c1=O", "TGI": "> 100"}, {"smiles": "CC(C)OC(=O)c1cc(NC(=O)C(C)(C)C)c(F)cc1Cl", "TGI": "> 100"}, {"smiles": "COCOCCCCCO[Si](C)(C)C(C)(C)C", "TGI": 63.2}, {"smiles": "COC(=O)C1=C(C(=O)OC)C2(C3C(SC)=CC(C)(C)CC3S1)N(Cc1ccccc1)CCN2Cc1ccccc1", "note": "(stereo not drawn)", "TGI": "> 100"}]}, {"test_system": "SK-MEL-5 melanoma", "assay": "growth of human tumour cells (NCI), 48 h", "units": {"TGI": "µM"}, "values": [{"smiles": "C[C@]12CC[C@H](OC3CCCCO3)CC1=CC[C@@H]1C2CC[C@]2(C)/C(=N/OCCC#N)CCC12", "note": "(stereo partly drawn)", "TGI": "> 100"}, {"smiles": "NC(N)=NNC(=O)CCn1[nH]c(=O)c(Cl)c(Cl)c1=O", "TGI": "> 100"}, {"smiles": "CC(C)OC(=O)c1cc(NC(=O)C(C)(C)C)c(F)cc1Cl", "TGI": "> 100"}, {"smiles": "COCOCCCCCO[Si](C)(C)C(C)(C)C", "TGI": 30.3}, {"smiles": "COC(=O)C1=C(C(=O)OC)C2(C3C(SC)=CC(C)(C)CC3S1)N(Cc1ccccc1)CCN2Cc1ccccc1", "note": "(stereo not drawn)", "TGI": "> 100"}]}, {"test_system": "NCI-H226 lung", "assay": "growth of human tumour cells (NCI), 48 h", "units": {"TGI": "µM"}, "values": [{"smiles": "NC(N)=NNC(=O)CCn1[nH]c(=O)c(Cl)c(Cl)c1=O", "TGI": "> 100"}, {"smiles": "CC(C)OC(=O)c1cc(NC(=O)C(C)(C)C)c(F)cc1Cl", "TGI": "> 100"}, {"smiles": "COC(=O)C1=C(C(=O)OC)C2(C3C(SC)=CC(C)(C)CC3S1)N(Cc1ccccc1)CCN2Cc1ccccc1", "note": "(stereo not drawn)", "TGI": "> 100"}]}, {"test_system": "HCC-2998 colon", "assay": "growth of human tumour cells (NCI), 48 h", "units": {"TGI": "µM"}, "values": [{"smiles": "C[C@]12CC[C@H](OC3CCCCO3)CC1=CC[C@@H]1C2CC[C@]2(C)/C(=N/OCCC#N)CCC12", "note": "(stereo partly drawn)", "TGI": "> 100"}, {"smiles": "NC(N)=NNC(=O)CCn1[nH]c(=O)c(Cl)c(Cl)c1=O", "TGI": "> 100"}, {"smiles": "CC(C)OC(=O)c1cc(NC(=O)C(C)(C)C)c(F)cc1Cl", "TGI": "> 100"}, {"smiles": "COCOCCCCCO[Si](C)(C)C(C)(C)C", "TGI": 31.9}]}, {"test_system": "DMS 273 small cell lung", "assay": "growth of human tumour cells (NCI), 48 h", "units": {"TGI": "µM"}, "values": [{"smiles": "C[C@]12CC[C@H](OC3CCCCO3)CC1=CC[C@@H]1C2CC[C@]2(C)/C(=N/OCCC#N)CCC12", "note": "(stereo partly drawn)", "TGI": "> 100"}, {"smiles": "NC(N)=NNC(=O)CCn1[nH]c(=O)c(Cl)c(Cl)c1=O", "TGI": "> 100"}, {"smiles": "CC(C)OC(=O)c1cc(NC(=O)C(C)(C)C)c(F)cc1Cl", "TGI": "> 100"}, {"smiles": "COC(=O)C1=C(C(=O)OC)C2(C3C(SC)=CC(C)(C)CC3S1)N(Cc1ccccc1)CCN2Cc1ccccc1", "note": "(stereo not drawn)", "TGI": "> 100"}]}, {"test_system": "HOP-18 NSCLC", "assay": "growth of human tumour cells (NCI), 48 h", "units": {"TGI": "µM"}, "values": [{"smiles": "C[C@]12CC[C@H](OC3CCCCO3)CC1=CC[C@@H]1C2CC[C@]2(C)/C(=N/OCCC#N)CCC12", "note": "(stereo partly drawn)", "TGI": "> 100"}, {"smiles": "NC(N)=NNC(=O)CCn1[nH]c(=O)c(Cl)c(Cl)c1=O", "TGI": "> 100"}, {"smiles": "CC(C)OC(=O)c1cc(NC(=O)C(C)(C)C)c(F)cc1Cl", "TGI": "> 100"}, {"smiles": "COCOCCCCCO[Si](C)(C)C(C)(C)C", "TGI": 65.3}, {"smiles": "COC(=O)C1=C(C(=O)OC)C2(C3C(SC)=CC(C)(C)CC3S1)N(Cc1ccccc1)CCN2Cc1ccccc1", "note": "(stereo not drawn)", "TGI": "> 100"}]}, {"test_system": "SR leukemia", "assay": "growth of human tumour cells (NCI), 48 h", "units": {"TGI": "µM"}, "values": [{"smiles": "COCOCCCCCO[Si](C)(C)C(C)(C)C", "TGI": 49.6}]}, {"test_system": "XF 498 CNS", "assay": "growth of human tumour cells (NCI), 48 h", "units": {"TGI": "µM"}, "values": [{"smiles": "C[C@]12CC[C@H](OC3CCCCO3)CC1=CC[C@@H]1C2CC[C@]2(C)/C(=N/OCCC#N)CCC12", "note": "(stereo partly drawn)", "TGI": 20.5}, {"smiles": "NC(N)=NNC(=O)CCn1[nH]c(=O)c(Cl)c(Cl)c1=O", "TGI": "> 100"}, {"smiles": "CC(C)OC(=O)c1cc(NC(=O)C(C)(C)C)c(F)cc1Cl", "TGI": "> 100"}, {"smiles": "COCOCCCCCO[Si](C)(C)C(C)(C)C", "TGI": 31.6}, {"smiles": "COC(=O)C1=C(C(=O)OC)C2(C3C(SC)=CC(C)(C)CC3S1)N(Cc1ccccc1)CCN2Cc1ccccc1", "note": "(stereo not drawn)", "TGI": "> 100"}]}]}
